The record followed here is publication PMC9412374, “Design, Synthesis, and Development of pyrazolo[1,5-a]pyrimidine Derivatives as a Novel Series of Selective PI3Kδ Inhibitors: Part I—Indole Derivatives” (Pharmaceuticals, 2022).

Data set [1] concerns the target T1, PI3Kδ (Homo sapiens, UniProt O00329).
T1 construct: purchased Merck Millipore
Put plainly: In vitro kinase inhibition assay for PI3K (ADP-Glo), PI3Kδ. The data set is classed as biochemical. Particulars: recombinant kinase, mean of two independent experiments. A general note: ADP-Glo turns the ADP formed in a reaction into a luminescent signal.

The target in data set [2] is T2, PI3Kα (Homo sapiens, UniProt P42336).
T2 construct: purchased Carna Biosciences
Put plainly: In vitro kinase inhibition assay for PI3K (ADP-Glo), PI3Kα. The data set is classed as biochemical. To be noted: for IC50: IC50 PI3K α, recombinant kinase, ADP-Glo, mean of two independent experiments; for Fold Selectivity α/δ: ratio of IC50 PI3Kα to IC50 PI3Kδ.

Data set [3] concerns CD19 cells. In words: B cells proliferation by flow cytometry (CFSE). To be noted: B-cell, 96 h, CD19 cells from PBMC, activated by αIgM and ODN2006, four days. It is filed as cell-based. The protocol: CD19 cells were isolated from PBMC using magnetic beads (Stem Cell, Cambridge, MA, USA) and then labeled with 2 µM CFSE (Invitrogen, Waltham, MA, USA).
After four days, cells were stained with LIVE/DEAD™ kit (Invitrogen, Waltham, MA, USA). Samples were acquired using Attune NxT Flow Cytometer (Invitrogen, Waltham, MA, USA) and analyzed using FlowJo software. Each biological assay was performed with cells isolated from a different donor. The presented results constitute the average value of the percentage of proliferating cells from 3 independent experiments.

The target of data set [4] is T3, PI3Kγ (Homo sapiens, UniProt P48736).
T3 construct: purchased Merck Millipore
Put plainly: In vitro kinase inhibition assay for PI3K (ADP-Glo), PI3Kγ. The data set is classed as biochemical. Particulars: for Fold Selectivity γ/δ: ratio of IC50 PI3Kγ to IC50 PI3Kδ. On the procedure: (§1) Tested compounds were dissolved in 100% DMSO, and obtained solutions were serially diluted in 1× reaction buffer. The recombinant kinase solution was diluted in a reaction mixture comprising 5× reaction buffer, respective compound solution (1 mM sodium diacetate 4,5-bisphosphate phosphatidylinositol (PIP2) solution in 40 mM Tris buffer), and water. In a 96-wells plate, 5 μL of compound solutions and 15 μL of the kinase solution in the reaction mixture were added per well. To initiate the interaction of chemical compounds to be tested with the enzyme, the plate was incubated for 10 min at a suitable temperature in a plate thermostat with orbital shaking at 600 rpm. Negative control wells contained all the above reagents except tested compound and kinase, and positive control wells contained all the above reagents except tested compounds. […] Subsequently, the plate was incubated for 1 h at 25 or 30 °C (depending on the PI3K isoform tested) in a plate thermostat with orbital shaking of the plate contents at 600 rpm. The reaction conditions are combined in the table below (Table 6).
(§2) Detection of ADP formed in the enzymatic reaction was then performed using ADP-Glo Kinase Assay™ (Promega, Madison, WI, USA). To the wells of a 96-well plate, 25 μL of ADP-Glo Reagent™ was added, and the plate was incubated for 40 min at 25 °C in a plate thermostat with orbital shaking at 600 rpm. Then 50 μL of Kinase Detection Reagent were added to each well, and the plate was incubated for 40 min at 25 °C in a plate thermostat with orbital shaking at 600 rpm. Once the incubation was complete, the luminescence intensity was measured using a Victor Light luminometer (Perkin Elmer, Inc., Waltham, MA, USA). IC50 values were determined based on luminescence intensity measured in wells containing tested compounds at different concentrations in relation to control wells. […] Each compound was tested at least in quadruplicates (4 wells) on two 96-well plates utilizing at least 4 wells for each control.

The nature of data set [5]: Kinetic solubility, shake-flask protocol. Particulars: aqueous buffer, kinetic from dmso stock, pH 7.4 phosphate-buffered saline, 25 °C, 500 µM compound. The data set is classed as physicochemical. The protocol:
Kinetic solubility was determined by the shake-flask protocol. Appropriate compounds (500 µM) were incubated in an aqueous buffer (0.1 M phosphate-buffered saline pH 7.4) at 25 °C with stirring at 500 rpm. The samples were taken at the start time and after 24 h of incubation, filtered through 0.22 µm filters, and diluted with two volumes of acetonitrile. UHPLC-UV/Vis determined sample concentrations. A calibration curve was prepared to quality the compound’s contents in the test solution.

A short description of data set [6]: Metabolic phase I stability in mouse microsomes. It is filed as in vitro ADME. To be noted: NADPH, 37 °C; for microsomal CLint at 1 μM: heading: MLM Cl; for half-life at 1 μM: read-out: MLM t1/2. On the procedure:
(§3) Assessment of metabolic phase I stability in mouse (CD-1™) and human microsomes (Thermo-Fisher Scientific, Waltham, MA, USA) was performed on 96-well non-binding plates (Greiner, Frickenhausen, Germany) at 1 μM concentration for verapamil (positive control) and donepezil (negative control) and tested compounds. Unless otherwise stated, all chemicals and materials were ordered from Merck Life Science (Palo Alto, CA, USA). Each biological replicate was prepared in triplicates. Briefly, mixtures were incubated in 100 mM potassium phosphate buffer with microsomes (0.5 mg/mL) and NADPH (1–1.2 mM) on a plate shaker (500 rpm) in the dark at 37 °C. A 4× solution of NADPH, a cofactor for metabolic enzymes, was prepared directly prior to the experiment by reducing NADP with G6P dehydrogenase (13.2 mM MgCl2, 13.2 mM G6P, 5.2 mM NADP, 3.2 U/mL G6P dehydrogenase, 20 min at 30 °C, 500 rpm). The negative control contained buffer instead of NADPH solution. Samples were collected at 0, 10, 20, and 40 min or 0 and 40 min for the negative and double negative controls. The reaction was stopped by protein precipitation in 2 volumes of ice-cold MeOH with 200 nM imipramine (an internal standard for LC-MS analysis). Then, the extract was mixed (1 min, 1000 rpm), filtered through a 0.22 μm filter on a 96-well plate vacuum manifold, and subjected to LC-MS analysis.

For data set [7], the target named is T4, PI3Kβ (Homo sapiens, UniProt P42338).
T4 construct: purchased Merck Millipore
In words: In vitro kinase inhibition assay for PI3K (ADP-Glo), PI3Kβ. Particulars: for Fold Selectivity β/δ: ratio of IC50 PI3Kβ to IC50 PI3Kδ. The data set is classed as biochemical. On the procedure:
as §1, §2

Data set [8] is described as follows: Metabolic phase I stability in human microsomes. It is filed as in vitro ADME. To be noted: human microsomes 0.5 mg/mL, NADPH, 37 °C; for half-life at 1 μM: read-out: HLM t1/2. On the procedure:
as §3

The mark [9] stands for this setting: CD-1, liver microsomes, mouse microsomes 0.5 mg/mL.

Structures are written as SMILES. Values after ≈ are worked out from the molar mass of the structure shown. Read-outs that look alike come from different tables or passages of the source.

T4 sequence (P42338 whole entry): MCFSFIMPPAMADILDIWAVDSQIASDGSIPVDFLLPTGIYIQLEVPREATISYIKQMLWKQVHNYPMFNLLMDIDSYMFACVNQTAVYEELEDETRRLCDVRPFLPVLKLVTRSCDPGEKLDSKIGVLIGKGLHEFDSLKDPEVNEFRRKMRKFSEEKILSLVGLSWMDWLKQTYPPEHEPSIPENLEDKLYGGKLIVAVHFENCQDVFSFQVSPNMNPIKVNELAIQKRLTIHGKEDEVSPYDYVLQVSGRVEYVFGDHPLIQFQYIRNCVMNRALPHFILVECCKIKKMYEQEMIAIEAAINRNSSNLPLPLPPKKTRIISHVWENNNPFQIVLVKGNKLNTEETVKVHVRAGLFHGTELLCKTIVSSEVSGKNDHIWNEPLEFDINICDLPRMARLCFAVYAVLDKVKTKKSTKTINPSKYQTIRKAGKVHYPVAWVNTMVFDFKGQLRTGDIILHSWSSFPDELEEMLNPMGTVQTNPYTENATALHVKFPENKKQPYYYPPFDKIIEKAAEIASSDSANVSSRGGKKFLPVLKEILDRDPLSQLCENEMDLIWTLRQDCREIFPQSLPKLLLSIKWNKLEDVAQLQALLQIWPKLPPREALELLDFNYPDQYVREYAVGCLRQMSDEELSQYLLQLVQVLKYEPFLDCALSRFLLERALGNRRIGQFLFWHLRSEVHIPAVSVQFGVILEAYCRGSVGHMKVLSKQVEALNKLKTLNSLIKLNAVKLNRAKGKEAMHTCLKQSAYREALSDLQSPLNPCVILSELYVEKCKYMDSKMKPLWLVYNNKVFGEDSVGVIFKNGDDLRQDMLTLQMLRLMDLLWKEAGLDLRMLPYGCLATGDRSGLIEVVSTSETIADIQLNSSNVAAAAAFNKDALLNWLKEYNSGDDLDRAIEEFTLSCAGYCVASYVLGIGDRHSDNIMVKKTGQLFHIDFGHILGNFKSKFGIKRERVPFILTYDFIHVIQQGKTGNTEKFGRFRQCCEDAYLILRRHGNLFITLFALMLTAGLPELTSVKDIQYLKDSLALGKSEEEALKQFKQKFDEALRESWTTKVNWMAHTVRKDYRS
T4 sequence (P27986 whole entry, further chain): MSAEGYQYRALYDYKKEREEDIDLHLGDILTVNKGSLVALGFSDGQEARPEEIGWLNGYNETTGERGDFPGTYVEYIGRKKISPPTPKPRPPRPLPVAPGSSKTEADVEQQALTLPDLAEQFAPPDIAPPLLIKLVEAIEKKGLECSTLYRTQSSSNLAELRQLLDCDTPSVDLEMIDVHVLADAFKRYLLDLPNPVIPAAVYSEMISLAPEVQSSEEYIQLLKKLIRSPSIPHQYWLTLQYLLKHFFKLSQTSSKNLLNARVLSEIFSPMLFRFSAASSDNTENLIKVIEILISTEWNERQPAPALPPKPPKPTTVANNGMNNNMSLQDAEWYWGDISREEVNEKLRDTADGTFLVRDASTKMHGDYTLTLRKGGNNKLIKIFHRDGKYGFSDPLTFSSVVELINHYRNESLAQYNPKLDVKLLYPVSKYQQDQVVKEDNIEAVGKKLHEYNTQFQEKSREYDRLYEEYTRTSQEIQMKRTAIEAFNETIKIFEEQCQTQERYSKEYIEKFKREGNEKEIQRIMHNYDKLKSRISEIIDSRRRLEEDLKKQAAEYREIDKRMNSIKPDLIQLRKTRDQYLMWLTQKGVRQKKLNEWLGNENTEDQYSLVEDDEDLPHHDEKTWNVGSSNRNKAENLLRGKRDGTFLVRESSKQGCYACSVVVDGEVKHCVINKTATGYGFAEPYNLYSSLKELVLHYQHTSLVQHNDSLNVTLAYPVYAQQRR
T2 sequence (P42336 whole entry): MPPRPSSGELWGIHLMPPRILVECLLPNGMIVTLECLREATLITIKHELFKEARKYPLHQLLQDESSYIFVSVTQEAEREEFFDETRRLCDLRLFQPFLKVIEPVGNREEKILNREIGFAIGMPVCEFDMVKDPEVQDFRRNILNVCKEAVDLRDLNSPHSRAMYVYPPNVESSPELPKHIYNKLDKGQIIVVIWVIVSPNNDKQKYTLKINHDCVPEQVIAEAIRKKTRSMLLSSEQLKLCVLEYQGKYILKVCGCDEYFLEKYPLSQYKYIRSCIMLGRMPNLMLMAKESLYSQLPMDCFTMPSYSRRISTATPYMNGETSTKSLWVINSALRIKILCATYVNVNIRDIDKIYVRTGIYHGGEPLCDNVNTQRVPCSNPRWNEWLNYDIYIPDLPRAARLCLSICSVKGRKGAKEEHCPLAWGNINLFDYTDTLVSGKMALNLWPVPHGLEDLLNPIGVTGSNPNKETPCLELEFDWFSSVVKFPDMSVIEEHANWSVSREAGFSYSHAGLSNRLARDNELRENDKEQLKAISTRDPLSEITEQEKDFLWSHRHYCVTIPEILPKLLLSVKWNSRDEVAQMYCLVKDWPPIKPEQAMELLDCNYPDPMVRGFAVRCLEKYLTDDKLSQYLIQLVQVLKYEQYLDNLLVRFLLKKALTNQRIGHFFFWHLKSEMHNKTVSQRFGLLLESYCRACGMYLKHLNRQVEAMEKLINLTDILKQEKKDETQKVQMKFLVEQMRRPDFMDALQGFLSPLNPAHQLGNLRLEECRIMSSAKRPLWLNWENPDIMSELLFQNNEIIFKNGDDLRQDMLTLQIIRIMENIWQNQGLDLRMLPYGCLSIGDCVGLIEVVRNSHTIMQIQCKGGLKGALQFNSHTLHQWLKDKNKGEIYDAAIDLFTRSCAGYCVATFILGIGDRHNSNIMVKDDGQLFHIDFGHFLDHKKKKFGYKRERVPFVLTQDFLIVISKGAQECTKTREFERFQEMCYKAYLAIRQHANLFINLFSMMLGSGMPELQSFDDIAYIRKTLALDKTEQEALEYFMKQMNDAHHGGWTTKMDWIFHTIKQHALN
T2 sequence (P27986 whole entry partner): as the sequence (P27986 whole entry, further chain) above
T3 sequence (P48736 whole entry): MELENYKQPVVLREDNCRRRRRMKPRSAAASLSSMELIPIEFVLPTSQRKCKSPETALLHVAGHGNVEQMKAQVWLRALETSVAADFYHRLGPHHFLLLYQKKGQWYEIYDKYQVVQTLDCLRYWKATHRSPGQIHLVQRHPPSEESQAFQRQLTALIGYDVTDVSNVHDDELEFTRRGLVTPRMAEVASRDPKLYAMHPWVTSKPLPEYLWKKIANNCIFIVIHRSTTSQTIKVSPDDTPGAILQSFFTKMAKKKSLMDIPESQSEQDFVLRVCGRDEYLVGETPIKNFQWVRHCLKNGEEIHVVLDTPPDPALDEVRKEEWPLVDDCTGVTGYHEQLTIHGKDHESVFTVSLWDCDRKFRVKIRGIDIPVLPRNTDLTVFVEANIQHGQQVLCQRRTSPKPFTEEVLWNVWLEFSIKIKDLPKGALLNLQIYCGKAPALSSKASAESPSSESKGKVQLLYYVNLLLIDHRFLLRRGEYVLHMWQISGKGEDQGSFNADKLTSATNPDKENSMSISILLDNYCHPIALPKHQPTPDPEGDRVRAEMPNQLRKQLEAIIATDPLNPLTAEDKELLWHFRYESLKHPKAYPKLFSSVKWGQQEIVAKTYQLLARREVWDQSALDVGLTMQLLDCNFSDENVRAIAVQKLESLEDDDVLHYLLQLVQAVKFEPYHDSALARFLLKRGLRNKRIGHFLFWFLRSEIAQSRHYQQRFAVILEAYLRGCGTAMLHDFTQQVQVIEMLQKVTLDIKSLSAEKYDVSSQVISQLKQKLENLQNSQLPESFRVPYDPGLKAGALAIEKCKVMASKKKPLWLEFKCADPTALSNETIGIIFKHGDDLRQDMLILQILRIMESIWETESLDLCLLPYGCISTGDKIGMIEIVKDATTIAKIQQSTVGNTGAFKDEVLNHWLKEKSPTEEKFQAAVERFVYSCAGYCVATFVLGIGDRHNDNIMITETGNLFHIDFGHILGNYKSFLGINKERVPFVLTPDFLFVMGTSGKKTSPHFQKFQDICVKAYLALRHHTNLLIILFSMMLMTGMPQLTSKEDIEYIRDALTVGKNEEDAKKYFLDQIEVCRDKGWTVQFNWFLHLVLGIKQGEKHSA
T1 sequence (P27986 whole entry): as the sequence (P27986 whole entry, further chain) above
T1 sequence (O00329 whole entry): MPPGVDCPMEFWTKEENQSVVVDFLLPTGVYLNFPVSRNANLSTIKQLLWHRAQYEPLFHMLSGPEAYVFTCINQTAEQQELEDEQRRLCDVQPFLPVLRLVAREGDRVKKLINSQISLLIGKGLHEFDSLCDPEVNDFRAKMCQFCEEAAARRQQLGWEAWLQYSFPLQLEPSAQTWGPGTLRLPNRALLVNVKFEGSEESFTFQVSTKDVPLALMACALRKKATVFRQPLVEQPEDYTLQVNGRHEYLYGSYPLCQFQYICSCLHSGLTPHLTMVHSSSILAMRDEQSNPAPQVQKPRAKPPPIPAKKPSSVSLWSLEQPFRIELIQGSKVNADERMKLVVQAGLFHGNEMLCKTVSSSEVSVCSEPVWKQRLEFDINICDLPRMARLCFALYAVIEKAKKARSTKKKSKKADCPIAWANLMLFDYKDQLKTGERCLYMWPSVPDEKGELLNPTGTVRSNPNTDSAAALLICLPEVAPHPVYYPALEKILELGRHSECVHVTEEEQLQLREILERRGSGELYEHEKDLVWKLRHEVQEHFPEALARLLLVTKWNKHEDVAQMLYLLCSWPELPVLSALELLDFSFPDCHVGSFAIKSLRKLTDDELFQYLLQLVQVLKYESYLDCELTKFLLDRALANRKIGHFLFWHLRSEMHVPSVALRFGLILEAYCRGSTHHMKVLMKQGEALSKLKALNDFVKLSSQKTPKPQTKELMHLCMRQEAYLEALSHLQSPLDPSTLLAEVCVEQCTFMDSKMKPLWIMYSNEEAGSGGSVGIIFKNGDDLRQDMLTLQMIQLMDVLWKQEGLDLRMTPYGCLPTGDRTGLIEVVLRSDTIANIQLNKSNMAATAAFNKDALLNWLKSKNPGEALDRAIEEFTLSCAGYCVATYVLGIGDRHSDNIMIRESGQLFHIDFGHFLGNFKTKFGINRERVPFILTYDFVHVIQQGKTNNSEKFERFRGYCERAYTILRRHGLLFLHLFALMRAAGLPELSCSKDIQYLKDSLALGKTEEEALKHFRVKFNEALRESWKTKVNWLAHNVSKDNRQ

For orientation: IC50 means the midpoint of a concentration-inhibition curve. What is called kinetic solubility is solubility judged after dilution from a stock solution rather than from solid. A word on the microsomal CLint: it is the capacity of the preparation to metabolise the compound, expressed as a volume cleared per time. In the case of `CC(C)(C)N1CCN(Cc2cc3nc(-c4cccc5[nH]ccc45)cc(N4CCOCC4)n3n2)CC1` [Compound 37, 2-((4-tert-butylpiperazin-1-yl)methyl)-5-(1H-indol-4-yl)-7-(morpholin-4-yl)pyrazolo[1,5-a]pyrimidine], the IC50 was 6.6 nM in data set [1] (read-out: IC50 PI3K δ); 12.5 µM in data set [2]; 20 nM in data set [3]; greater than 60 µM in data set [4] (recombinant kinase, ADP-Glo, mean of two independent experiments, read-out: IC50 PI3K γ); 5.47 µM in data set [7] (recombinant kinase, ADP-Glo, mean of two independent experiments, read-out: IC50 PI3K β). In addition, the “Fold Selectivity α/δ” value in data set [2] worked out at 1889. Further, the “Fold Selectivity γ/δ” value in data set [4] is greater than 9091. This compound also returned a solubility (kinetic) at 24 h in data set [5] of 444 µM (≈ 210 µg/mL). In addition, the microsomal CLint at 1 μM in data set [6] (setting [9]) stood at 13.7 µL/min/mg; in data set [8] (liver microsomes, heading: HLM Cl) it was 22.8 µL/min/mg. Also, the half-life at 1 μM was 126 min in data set [6] (setting [9]) and 76 min in data set [8] (liver microsomes). In addition, in data set [7], the “Fold Selectivity β/δ” value is on record as 829.

As to `CC(C)(C)N1CCN(Cc2cc3nc(-c4cncc5[nH]ccc45)cc(N4CCOCC4)n3n2)CC1` [Compound 54, 2-((4-tert-butylpiperazin-1-yl)methyl)-5-(1H-pyrrolo [2,3-c]pyridin-4-yl)-7-(morpholin-4-yl)pyrazolo[1,5-a]pyrimidine], the IC50 in data set [1] (IC50 PI3K δ) was determined as 2.8 nM; in data set [2], 2.67 µM; in data set [3], 19 nM; in data set [4], 34.4 µM; in data set [7], 21.6 µM. The “Fold Selectivity α/δ” value in data set [2] came to 954. For the same compound, in data set [4], the “Fold Selectivity γ/δ” value is 12,286. Moreover, the kinetic solubility at 24 h in data set [5] is greater than 500 µM. In data set [6] (CD-1, microsomes, mouse microsomes 0.5 mg/mL), this compound displayed a microsomal CLint at 1 μM of 7 µL/min/mg. Also, the half-life at 1 μM in data set [6] (CD-1, mouse microsomes 0.5 mg/mL) worked out at 198 min; in data set [8] it was 370 min. For the same compound, in data set [7], the “Fold Selectivity β/δ” value is 7714.
